Laboratory results reported in the NIST ThermoML archive (doi:10.1016/j.jct.2016.06.034).
Numbers after ± are expanded uncertainties.

Assay: mn = molality of the nth substance listed, in mol/kg
Settings: 84.5 kPa, Liquid; for electrical conductivity: Alternating current cell with electrodes; for speed of sound: Frequency=3 MHz, Sing-around technique in a fixed-path interferometer; for mass density: Vibrating tube method

CCCCCCCCCCn1cc[n+](C)c1.[Br-] [1-decyl-3-methylimidazolium bromide] + O
Settings | electrical conductivity [S/m] | mass density [kg/m3] | speed of sound [m/s]
298.15 K, m1 = 0.0095 | – | 997.416 ± 0.11 | 1498.6 ± 1.2
298.15 K, m1 = 0.01379 | – | 997.587 ± 0.11 | 1499.5 ± 1.2
298.15 K, m1 = 0.01652 | – | 997.693 ± 0.11 | 1500 ± 1.2
298.15 K, m1 = 0.02179 | – | 997.899 ± 0.11 | 1500.9 ± 1.2
298.15 K, m1 = 0.02615 | – | 998.07 ± 0.11 | 1501.7 ± 1.2
298.15 K, m1 = 0.03106 | – | 998.263 ± 0.11 | 1502.5 ± 1.2
298.15 K, m1 = 0.03338 | – | 998.353 ± 0.11 | 1502.9 ± 1.2
298.15 K, m1 = 0.03397 | 0.283 ± 0.0046 | – | –
298.15 K, m1 = 0.03638 | 0.3 ± 0.0048 | – | –
298.15 K, m1 = 0.03819 | – | 998.54 ± 0.11 | 1503.7 ± 1.2
298.15 K, m1 = 0.03875 | 0.317 ± 0.0049 | – | –
298.15 K, m1 = 0.04039 | 0.327 ± 0.0048 | – | –
298.15 K, m1 = 0.0406 | – | 998.636 ± 0.11 | 1503.9 ± 1.2
298.15 K, m1 = 0.04217 | 0.338 ± 0.0047 | – | –
298.15 K, m1 = 0.04332 | – | 998.732 ± 0.11 | 1504.2 ± 1.2
298.15 K, m1 = 0.04391 | 0.346 ± 0.0045 | – | –
298.15 K, m1 = 0.04608 | 0.354 ± 0.0045 | – | –
298.15 K, m1 = 0.04614 | – | 998.829 ± 0.11 | 1504.4 ± 1.2
298.15 K, m1 = 0.04825 | 0.361 ± 0.0045 | – | –
298.15 K, m1 = 0.05051 | 0.368 ± 0.0046 | – | –
298.15 K, m1 = 0.0526 | 0.373 ± 0.0046 | – | –
298.15 K, m1 = 0.05487 | 0.379 ± 0.0047 | – | –
298.15 K, m1 = 0.05515 | – | 999.136 ± 0.11 | 1504.7 ± 1.2
298.15 K, m1 = 0.05749 | 0.386 ± 0.0048 | – | –
298.15 K, m1 = 0.06017 | 0.392 ± 0.0048 | – | –
298.15 K, m1 = 0.06271 | 0.398 ± 0.0049 | – | –
298.15 K, m1 = 0.06396 | – | 999.429 ± 0.11 | 1504.8 ± 1.2
298.15 K, m1 = 0.07815 | – | 999.895 ± 0.11 | 1504.9 ± 1.2
298.15 K, m1 = 0.122 | – | 1001.31 ± 0.11 | 1505.1 ± 1.2
298.15 K, m1 = 0.1726 | – | 1002.91 ± 0.11 | 1505.4 ± 1.2
298.15 K, m1 = 0.2247 | – | 1004.51 ± 0.11 | 1505.7 ± 1.2
298.15 K, m1 = 0.2539 | – | 1005.39 ± 0.11 | 1505.9 ± 1.2
303.15 K, m1 = 1e-05 | 0.00018 | – | –
303.15 K, m1 = 3e-05 | 0.000342 | – | –
303.15 K, m1 = 4e-05 | 0.000511 | – | –
303.15 K, m1 = 5e-05 | 0.000676 | – | –
303.15 K, m1 = 7e-05 | 0.000835 | – | –
303.15 K, m1 = 8e-05 | 0.001 | – | –
303.15 K, m1 = 0.00015 | 0.00183 | – | –
303.15 K, m1 = 0.00023 | 0.00267 ± 0.005 | – | –
303.15 K, m1 = 0.00038 | 0.00443 ± 0.0049 | – | –
303.15 K, m1 = 0.00053 | 0.00608 ± 0.0049 | – | –
303.15 K, m1 = 0.00082 | 0.00939 ± 0.0049 | – | –
303.15 K, m1 = 0.00142 | 0.016 ± 0.0048 | – | –
303.15 K, m1 = 0.0023 | 0.0256 ± 0.0047 | – | –
303.15 K, m1 = 0.00351 | 0.0384 ± 0.0047 | – | –
303.15 K, m1 = 0.00463 | 0.0502 ± 0.0047 | – | –
303.15 K, m1 = 0.00617 | 0.0665 ± 0.0046 | – | –
303.15 K, m1 = 0.00896 | 0.0945 ± 0.0045 | – | –
303.15 K, m1 = 0.0095 | – | – | 1510.8 ± 1.2
303.15 K, m1 = 0.01168 | 0.121 ± 0.0045 | – | –
303.15 K, m1 = 0.01379 | – | – | 1511.6 ± 1.2
303.15 K, m1 = 0.01458 | 0.148 ± 0.0045 | – | –
303.15 K, m1 = 0.01652 | – | – | 1512 ± 1.2
303.15 K, m1 = 0.01746 | 0.175 ± 0.0045 | – | –
303.15 K, m1 = 0.01986 | 0.197 ± 0.0046 | – | –
303.15 K, m1 = 0.02179 | – | – | 1512.8 ± 1.2
303.15 K, m1 = 0.02235 | 0.218 ± 0.0047 | – | –
303.15 K, m1 = 0.0248 | 0.24 ± 0.0048 | – | –
303.15 K, m1 = 0.02615 | – | – | 1513.5 ± 1.2
303.15 K, m1 = 0.0272 | 0.26 ± 0.0049 | – | –
303.15 K, m1 = 0.02958 | 0.28 ± 0.005 | – | –
303.15 K, m1 = 0.03106 | – | – | 1514.3 ± 1.2
303.15 K, m1 = 0.03192 | 0.299 ± 0.0051 | – | –
303.15 K, m1 = 0.03338 | – | – | 1514.7 ± 1.2
303.15 K, m1 = 0.03356 | 0.312 ± 0.0051 | – | –
303.15 K, m1 = 0.0353 | 0.326 ± 0.0053 | – | –
303.15 K, m1 = 0.03765 | 0.345 ± 0.0054 | – | –
303.15 K, m1 = 0.03819 | – | – | 1515.4 ± 1.2
303.15 K, m1 = 0.03995 | 0.361 ± 0.0054 | – | –
303.15 K, m1 = 0.0406 | – | – | 1515.5 ± 1.2
303.15 K, m1 = 0.04173 | 0.373 ± 0.0053 | – | –
303.15 K, m1 = 0.04332 | – | – | 1515.8 ± 1.2
303.15 K, m1 = 0.0437 | 0.385 ± 0.0052 | – | –
303.15 K, m1 = 0.04561 | 0.393 ± 0.0051 | – | –
303.15 K, m1 = 0.04614 | – | – | 1516 ± 1.2
303.15 K, m1 = 0.0476 | 0.401 ± 0.0051 | – | –
303.15 K, m1 = 0.04986 | 0.409 ± 0.0051 | – | –
303.15 K, m1 = 0.05209 | 0.416 ± 0.0052 | – | –
303.15 K, m1 = 0.05436 | 0.423 ± 0.0053 | – | –
303.15 K, m1 = 0.05515 | – | – | 1516.2 ± 1.2
303.15 K, m1 = 0.05698 | 0.43 ± 0.0053 | – | –
303.15 K, m1 = 0.0591 | 0.436 ± 0.0054 | – | –
303.15 K, m1 = 0.06148 | 0.443 ± 0.0056 | – | –
303.15 K, m1 = 0.06396 | – | – | 1516.2 ± 1.2
303.15 K, m1 = 0.07815 | – | – | 1516.2 ± 1.2
303.15 K, m1 = 0.122 | – | – | 1516.1 ± 1.2
303.15 K, m1 = 0.1726 | – | – | 1516 ± 1.2
303.15 K, m1 = 0.2247 | – | – | 1516 ± 1.2
303.15 K, m1 = 0.2539 | – | – | 1515.9 ± 1.2
